# Laboratory results published in ChEMBL document CHEMBL1201862, “PubChem BioAssay data set” (2004).
#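 Test compounds were applied to cells in 96-well plates for 48 hours at 5 doses. The concentration for 50% growth inhibition is given as GI50.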 Activity calls are given as the source filed them. No stated cut-off is given here; in the data, active = GI50 up to about 1.1 µM and inactive = higher.
# What was measured:
# Assay in all cases: growth of human tumour cells (NCI), 48 h
# BT-549 = tested on: BT-549
# NCI-H460 = tested on: NCI-H460
# KM12 = tested on: KM12
# T47D = tested on: T47D
# HT-29 = tested on: HT-29
# SK-MEL-28 = tested on: SK-MEL-28
# EKVX = tested on: EKVX
# OVCAR-8 = tested on: OVCAR-8
# COLO 205 = tested on: COLO 205
# UACC-62 = tested on: UACC-62
# TK-10 = tested on: TK-10
# SF-539 = tested on: SF-539
# SNB-75 = tested on: SNB-75
# NCI-H226 = tested on: NCI-H226
# A549 = tested on: A549
# HCC 2998 = tested on: HCC 2998
# IGROV-1 = tested on: IGROV-1
# Malme-3M = tested on: Malme-3M
# OVCAR-3 = tested on: OVCAR-3
# OVCAR-4 = tested on: OVCAR-4
# LOX IMVI = tested on: LOX IMVI
# SK-OV-3 = tested on: SK-OV-3
# SK-MEL-5 = tested on: SK-MEL-5
# PC-3 = tested on: PC-3
# DU-145 = tested on: DU-145
# MDA-MB-435 = tested on: MDA-MB-435
# UACC-257 = tested on: UACC-257
# HOP-62 = tested on: HOP-62
# MOLT-4 = tested on: MOLT-4
# HL-60 = tested on: HL-60
# SF-295 = tested on: SF-295
# MCF7 = tested on: MCF7
# SR = tested on: SR
# SN12C = tested on: SN12C
# OVCAR-5 = tested on: OVCAR-5
# RXF 393 = tested on: RXF 393
# CAKI-1 = tested on: CAKI-1
# MDA-N = tested on: MDA-N
# 786-0 = tested on: 786-0
# HOP-92 = tested on: HOP-92
# ACHN = tested on: ACHN
# A498 = tested on: A498
# SW-620 = tested on: SW-620
# M14 = tested on: M14
# RPMI-8226 = tested on: RPMI-8226
# HCT-116 = tested on: HCT-116
# NCI-H23 = tested on: NCI-H23
# NCI-H522 = tested on: NCI-H522
# UO-31 = tested on: UO-31
# SF-268 = tested on: SF-268
# HCT-15 = tested on: HCT-15
# Hs-578T = tested on: Hs-578T
# K562 = tested on: K562
# CCRF-CEM = tested on: CCRF-CEM
# MDA-MB-231 = tested on: MDA-MB-231
# U-251 = tested on: U-251
# SK-MEL-2 = tested on: SK-MEL-2
# SNB-19 = tested on: SNB-19
# NCI/ADR-RES = tested on: NCI/ADR-RES
structure (smiles),measurement,setting,value
Cc1ccc(S(=O)(=O)N/N=C2\CC3CC4CCC2C4C3)cc1 (stereo not drawn),GI50,BT-549,> 100 µM (inactive)
same,GI50,NCI-H460,> 100 µM (inactive)
same,GI50,KM12,> 100 µM (inactive)
same,GI50,T47D,> 100 µM (inactive)
same,GI50,HT-29,> 100 µM (inactive)
same,GI50,SK-MEL-28,> 100 µM (inactive)
same,GI50,EKVX,> 100 µM (inactive)
same,GI50,OVCAR-8,> 100 µM (inactive)
same,GI50,COLO 205,> 100 µM (inactive)
same,GI50,UACC-62,> 100 µM (inactive)
same,GI50,TK-10,> 100 µM (inactive)
same,GI50,SF-539,> 100 µM (inactive)
same,GI50,SNB-75,> 100 µM (inactive)
same,GI50,NCI-H226,> 100 µM (inactive)
same,GI50,A549,> 100 µM (inactive)
same,GI50,HCC 2998,> 100 µM (inactive)
same,GI50,IGROV-1,> 100 µM (inactive)
same,GI50,Malme-3M,> 100 µM (inactive)
same,GI50,OVCAR-3,> 100 µM (inactive)
same,GI50,OVCAR-4,> 100 µM (inactive)
same,GI50,LOX IMVI,> 100 µM (inactive)
same,GI50,SK-OV-3,> 100 µM (inactive)
same,GI50,SK-MEL-5,> 100 µM (inactive)
same,GI50,PC-3,> 100 µM (inactive)
same,GI50,DU-145,> 100 µM (inactive)
same,GI50,MDA-MB-435,> 100 µM (inactive)
same,GI50,UACC-257,> 100 µM (inactive)
same,GI50,HOP-62,> 100 µM (inactive)
same,GI50,MOLT-4,> 100 µM (inactive)
same,GI50,HL-60,> 100 µM (inactive)
same,GI50,SF-295,> 100 µM (inactive)
same,GI50,MCF7,> 100 µM (inactive)
same,GI50,SR,> 100 µM (inactive)
same,GI50,SN12C,> 100 µM (inactive)
same,GI50,OVCAR-5,> 100 µM (inactive)
same,GI50,RXF 393,> 100 µM (inactive)
same,GI50,CAKI-1,> 100 µM (inactive)
same,GI50,MDA-N,> 100 µM (inactive)
same,GI50,786-0,> 100 µM (inactive)
same,GI50,HOP-92,> 100 µM (inactive)
same,GI50,ACHN,> 100 µM (inactive)
same,GI50,A498,> 100 µM (inactive)
same,GI50,SW-620,> 100 µM (inactive)
same,GI50,M14,> 100 µM (inactive)
same,GI50,RPMI-8226,> 100 µM (inactive)
same,GI50,HCT-116,> 100 µM (inactive)
same,GI50,NCI-H23,> 100 µM (inactive)
same,GI50,NCI-H522,> 100 µM (inactive)
same,GI50,UO-31,> 100 µM (inactive)
same,GI50,SF-268,> 100 µM (inactive)
same,GI50,HCT-15,> 100 µM
same,GI50,Hs-578T,> 100 µM (inactive)
same,GI50,K562,> 100 µM (inactive)
same,GI50,CCRF-CEM,> 100 µM (inactive)
same,GI50,MDA-MB-231,> 100 µM (inactive)
same,GI50,U-251,> 100 µM (inactive)
O=C1c2ccccc2-c2ccc(/N=N/c3c(O)ccc4ccccc34)cc21,GI50,BT-549,> 100 µM (inactive)
same,GI50,KM12,> 100 µM (inactive)
same,GI50,T47D,> 100 µM (inactive)
same,GI50,HT-29,> 100 µM (inactive)
same,GI50,SK-MEL-28,> 100 µM (inactive)
same,GI50,EKVX,> 100 µM (inactive)
same,GI50,OVCAR-8,> 100 µM (inactive)
same,GI50,COLO 205,> 100 µM (inactive)
same,GI50,UACC-62,> 100 µM (inactive)
same,GI50,TK-10,> 100 µM (inactive)
same,GI50,SK-MEL-2,> 100 µM (inactive)
same,GI50,SNB-75,> 100 µM (inactive)
same,GI50,NCI-H226,> 100 µM (inactive)
same,GI50,A549,> 100 µM (inactive)
same,GI50,IGROV-1,> 100 µM (inactive)
same,GI50,Malme-3M,19.7 µM (inactive)
same,GI50,OVCAR-3,> 100 µM (inactive)
same,GI50,OVCAR-4,> 100 µM (inactive)
same,GI50,LOX IMVI,> 100 µM (inactive)
same,GI50,SK-OV-3,> 100 µM (inactive)
same,GI50,SK-MEL-5,> 100 µM (inactive)
same,GI50,PC-3,> 100 µM (inactive)
same,GI50,DU-145,> 100 µM (inactive)
same,GI50,SNB-19,> 100 µM (inactive)
same,GI50,MDA-MB-435,33.6 µM (inactive)
same,GI50,UACC-257,> 100 µM (inactive)
same,GI50,HOP-62,> 100 µM (inactive)
same,GI50,MOLT-4,41.8 µM (inactive)
same,GI50,SF-295,> 100 µM (inactive)
same,GI50,SN12C,> 100 µM (inactive)
same,GI50,OVCAR-5,> 100 µM (inactive)
same,GI50,RXF 393,> 100 µM (inactive)
same,GI50,CAKI-1,> 100 µM (inactive)
same,GI50,MDA-N,> 100 µM (inactive)
same,GI50,786-0,> 100 µM (inactive)
same,GI50,HOP-92,> 100 µM (inactive)
same,GI50,A498,> 100 µM (inactive)
same,GI50,SW-620,> 100 µM (inactive)
same,GI50,M14,> 100 µM (inactive)
same,GI50,RPMI-8226,> 100 µM (inactive)
same,GI50,HCT-116,> 100 µM (inactive)
same,GI50,NCI-H23,> 100 µM (inactive)
same,GI50,NCI/ADR-RES,> 100 µM (inactive)
same,GI50,NCI-H522,> 100 µM (inactive)
same,GI50,UO-31,> 100 µM (inactive)
same,GI50,SF-268,> 100 µM (inactive)
same,GI50,HCT-15,> 100 µM
same,GI50,Hs-578T,> 100 µM (inactive)
same,GI50,K562,> 100 µM (inactive)
same,GI50,CCRF-CEM,15.4 µM (inactive)
same,GI50,MDA-MB-231,> 100 µM (inactive)
same,GI50,U-251,> 100 µM (inactive)
